Where two headings read alike, the source gives them in different places.
Target: T1, jack bean urease (Canavalia ensiformis, UniProt P07374)
T1 construct: purchased Sigma (St. Louis, MO, USA)
Assay: biochemical
Procedure: The urease activity was determined by measuring the amount of ammonia produced with the indophenols method previously described. The reaction mixtures, comprising 20 µL of enzyme (jack bean urease, 5 U/mL) and 20 μL of test compounds in 50 μL buffer (100 mM urea, 0.01 M K2HPO4, 1 mM EDTA, and 0.01 M […], pH 8.2), were incubated for 30 min at 37 °C in a 96-well plate. Briefly, 50 μL each of phenol reagents (1%, w/v phenol and 0.005%, w/v sodium nitroprusside) and 50 μL of alkali reagent (0.5%, w/v NaOH and 0.1% active chloride NaOCl) were added to each well. The absorbance at 625 nm was measured after 10 min, using a microplate reader (OPTI Max, Tunable). All reactions were performed in triplicate. The urease inhibition activities were calculated according to the following formula:Urease inhibition activity (%) = (ODcontrol − ODsample × 100)/ODcontrol where ODcontrol and ODsample represents the optical densities in the absence and presence of the sample, respectively. Thiourea was used as the standard inhibitor for urease.

T1 sequence (P07374 whole entry, looked up): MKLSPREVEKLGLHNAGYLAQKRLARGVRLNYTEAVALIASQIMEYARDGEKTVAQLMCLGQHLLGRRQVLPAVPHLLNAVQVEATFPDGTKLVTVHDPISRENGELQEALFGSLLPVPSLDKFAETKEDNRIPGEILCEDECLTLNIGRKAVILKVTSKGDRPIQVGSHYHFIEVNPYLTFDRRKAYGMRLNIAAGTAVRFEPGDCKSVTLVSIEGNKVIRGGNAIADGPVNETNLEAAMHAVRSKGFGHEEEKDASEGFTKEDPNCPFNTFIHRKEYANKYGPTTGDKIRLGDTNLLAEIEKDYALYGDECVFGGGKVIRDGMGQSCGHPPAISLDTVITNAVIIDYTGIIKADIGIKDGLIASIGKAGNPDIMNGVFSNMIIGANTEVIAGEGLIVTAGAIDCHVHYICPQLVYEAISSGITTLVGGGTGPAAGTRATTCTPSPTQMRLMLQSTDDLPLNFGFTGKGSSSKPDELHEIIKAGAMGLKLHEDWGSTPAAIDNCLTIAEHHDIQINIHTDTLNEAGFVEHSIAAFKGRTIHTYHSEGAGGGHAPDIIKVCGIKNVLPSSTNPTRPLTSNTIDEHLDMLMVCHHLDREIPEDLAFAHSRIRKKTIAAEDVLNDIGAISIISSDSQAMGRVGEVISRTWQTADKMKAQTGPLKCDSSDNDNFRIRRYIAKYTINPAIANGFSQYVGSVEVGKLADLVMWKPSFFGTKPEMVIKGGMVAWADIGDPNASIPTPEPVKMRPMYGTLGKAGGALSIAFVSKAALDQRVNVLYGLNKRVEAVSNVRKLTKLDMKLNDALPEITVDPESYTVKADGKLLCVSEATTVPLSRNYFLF

COc1ccc(-c2n[nH]c(=O)n2/N=C/c2cccc(/C=N/n3c(-c4ccc(OC)cc4)n[nH]c3=O)n2)cc1 [Compound 3]
IC50: 18.9 ± 1.81 µM

COc1ccc(-c2n[nH]c(=S)n2/N=C/c2cccc(/C=N/n3c(-c4ccc(OC)cc4)n[nH]c3=S)n2)cc1 [Compound 4]
IC50: 29.3 ± 3.32 µM

NC(N)=S [Thio-Urea, Thiourea, reference compound]
IC50 (jack bean urease 5 U/mL, 100 mM urea, pH 8.2, 30 min 37 °C, read-out: Urease Inhibition IC50): 20.7 ± 0.45 µM
